# Assay results published in patent US8063095B2, “IAP BIR domain binding compounds” (Pharmascience Inc., priority 2005, dated 2011).
# Tested on: MDA-MB-231 (breast) cancer cells
# Assay: Cell viability (MTT) assay, MDA cells
# Conditions: 72 hours, MTT based assay
# Protocol: (§1) MDA-MD-231 (breast) and SKOV-3 (ovarian) cancer cells were cultured in RPMI1640 media supplemented with 10% FBS and 100 units/mL of Penicillin and Steptomycin.
# (§2) Viability assays were done on a number of cells including MDA-MB-231, SKOV-3, H460, PC3, HCT-116, and SW480 cells. Cells were seeded in 96 well plates at a respective density of 5000 and 2000 cells per well and incubated at 37° C. in presence of 5% CO2 for 24 hours. Selected compounds were diluted into the media at various concentration ranging from 0.01 uM up to 100 uM. Diluted compounds were added onto the MDA-MB-231 cells. For the MDA-MB-231 SKOV3, H460, PC3, HCT-116, and SW480 cells, the compounds were added either alone or in presence of 1-3 ng/ml of TRAIL. After 72 hours cellular viability was evaluated by MTT based assays.
row,EC50,Compound
1,< 1000 nM,CN[C@@H](C)C(=O)N[C@@H](CCC(=O)NCCNC(=O)CC[C@H](NC(=O)[C@H](C)NC)C(=O)N1CCC[C@H]1CN(CCc1ccccc1)C(=O)C(F)(F)F)C(=O)N1CCC[C@H]1CN(CCc1ccccc1)C(=O)C(F)(F)F [Compound 18]
2,< 1000 nM,CN[C@@H](C)C(=O)N[C@@H](CCC(=O)NCCNC(=O)CC[C@H](NC(=O)[C@H](C)NC)C(=O)N1CCC[C@H]1CN(CCc1ccccc1)C(=O)C(F)(F)F)C(=O)N1CCC[C@H]1CN(CCc1ccccc1)C(=O)C(F)(F)F [Compound 19]
3,< 1000 nM,CN[C@@H](C)C(=O)N[C@@H](CCC(=O)NCCNC(=O)CC[C@H](NC(=O)[C@H](C)NC)C(=O)N1CCC[C@H]1CN(CCc1ccccc1)C(=O)C(F)(F)F)C(=O)N1CCC[C@H]1CN(CCc1ccccc1)C(=O)C(F)(F)F [Compound 20]
4,< 1000 nM,CN[C@@H](C)C(=O)N[C@@H](CCC(=O)NCCNC(=O)CC[C@H](NC(=O)[C@H](C)NC)C(=O)N1CCC[C@H]1CN(CCc1ccccc1)C(=O)C(F)(F)F)C(=O)N1CCC[C@H]1CN(CCc1ccccc1)C(=O)C(F)(F)F [Compound 21]
5,< 100 nM,CN[C@@H](C)C(=O)N[C@@H](CCC(=O)NCCNC(=O)CC[C@H](NC(=O)[C@H](C)NC)C(=O)N1CCC[C@H]1CN(CCc1ccccc1)C(=O)C(F)(F)F)C(=O)N1CCC[C@H]1CN(CCc1ccccc1)C(=O)C(F)(F)F [Compound 22]
6,< 100 nM,CN[C@@H](C)C(=O)N[C@@H](CCC(=O)NCCNC(=O)CC[C@H](NC(=O)[C@H](C)NC)C(=O)N1CCC[C@H]1CN(CCc1ccccc1)C(=O)C(F)(F)F)C(=O)N1CCC[C@H]1CN(CCc1ccccc1)C(=O)C(F)(F)F [Compound 30]
7,< 100 nM,CN[C@@H](C)C(=O)N[C@@H](CCC(=O)NCCNC(=O)CC[C@H](NC(=O)[C@H](C)NC)C(=O)N1CCC[C@H]1CN(CCc1ccccc1)C(=O)C(F)(F)F)C(=O)N1CCC[C@H]1CN(CCc1ccccc1)C(=O)C(F)(F)F [Compound 31]

# Same assay, conditions: Homo sapiens, MDA-MB-231, 72 h, MTT based assay
row,EC50,Compound
1,< 100 nM,CN[C@@H](C)C(=O)N[C@H](C(=O)N1CCC[C@H]1CN(CCc1ccccc1)C(C)=O)[C@@H](C)OCC#CC#CCO[C@H](C)[C@H](NC(=O)[C@H](C)NC)C(=O)N1CCC[C@H]1CN(CCc1ccccc1)C(C)=O [Compound 5]
2,< 100 nM,CN[C@@H](C)C(=O)N[C@H](C(=O)N1CCC[C@H]1CN(CCc1ccccc1)C(=O)c1ccc(OC)cc1)[C@@H](C)OCC#CC#CCO[C@H](C)[C@H](NC(=O)[C@H](C)NC)C(=O)N1CCC[C@H]1CN(CCc1ccccc1)C(=O)c1ccc(OC)cc1 [Compound 9]
3,< 100 nM,CN[C@@H](C)C(=O)N[C@H](C(=O)N1CCC[C@H]1CN(CCc1ccccc1)C(=O)CNCc1ccccc1)[C@@H](C)OCC#CC#CCO[C@H](C)[C@H](NC(=O)[C@H](C)NC)C(=O)N1CCC[C@H]1CN(CCc1ccccc1)C(=O)CNCc1ccccc1 [Compound 10]
4,< 100 nM,CN[C@@H](C)C(=O)N[C@@H](COCC#CC#CCOC[C@H](NC(=O)[C@H](C)NC)C(=O)N1CCC[C@H]1CN(CCc1ccccc1)C(=O)C(F)(F)F)C(=O)N1CCC[C@H]1CN(CCc1ccccc1)C(=O)C(F)(F)F [Compound 24]
5,< 100 nM,CN[C@@H](C)C(=O)N[C@H](C(=O)N1CCC[C@H]1CN(CCc1ccccc1)C(=O)C(C)C)[C@@H](C)OCC#CC#CCO[C@H](C)[C@H](NC(=O)[C@H](C)NC)C(=O)N1CCC[C@H]1CN(CCc1ccccc1)C(=O)C(C)C [Compound 26]
6,< 1000 nM,CNCC(=O)N(CCc1ccccc1)C[C@@H]1CCCN1C(=O)[C@@H](NC(=O)[C@H](C)NC)[C@@H](C)OCC#CC#CCO[C@H](C)[C@H](NC(=O)[C@H](C)NC)C(=O)N1CCC[C@H]1CN(CCc1ccccc1)C(=O)CNC [Compound 27]
7,< 100 nM,CN[C@@H](C)C(=O)N[C@H](C(=O)N1CCC[C@H]1CN(CCc1ccccc1)C(=O)C(F)F)[C@@H](C)OCC#CC#CCO[C@H](C)[C@H](NC(=O)[C@H](C)NC)C(=O)N1CCC[C@H]1CN(CCc1ccccc1)C(=O)C(F)F [Compound 28]
8,< 1000 nM,CN[C@@H](C)C(=O)N[C@@H](CC(=O)NCCNC(=O)C[C@H](NC(=O)[C@H](C)NC)C(=O)N1CCC[C@H]1CN(CCc1ccccc1)C(=O)C(F)(F)F)C(=O)N1CCC[C@H]1CN(CCc1ccccc1)C(=O)C(F)(F)F [Compound 35]

# The remaining lines, values behind:
row,Compound,EC50
1,CN[C@@H](C)C(=O)NC(CCCNC(=O)c1ccc(C(=O)NCCC[C@H](NC(=O)[C@H](C)NC)C(=O)N2CCC[C@H]2C(=O)N[C@@H]2CCCc3ccccc32)cc1)C(=O)N1CCC[C@H]1C(=O)N[C@@H]1CCCc2ccccc21 (some centres unmarked) [Compound 15],< 100 nM
2,CN[C@@H](C)C(=O)N[C@@H](CCCNC(=O)NCCC[C@H](NC(=O)[C@H](C)NC)C(=O)N1CCC[C@H]1C(=O)N[C@@H]1CCCc2ccccc21)C(=O)N1CCC[C@H]1C(=O)N[C@@H]1CCCc2ccccc21 [Compound 16],< 100 nM
3,CN[C@@H](C)C(=O)N[C@@H](CCC(=O)NCc1ccc(CNC(=O)CC[C@H](NC(=O)[C@H](C)NC)C(=O)N2CCC[C@H]2CN(CCc2ccccc2)C(=O)C(F)(F)F)cc1)C(=O)N1CCC[C@H]1CN(CCc1ccccc1)C(=O)C(F)(F)F [Compound 17],< 1000 nM
4,CN[C@@H](C)C(=O)N[C@H](C(=O)N1CCC[C@H]1C(=O)N[C@@H]1CCCc2ccccc21)[C@@H](C)OCCCCCCO[C@H](C)[C@H](NC(=O)[C@H](C)NC)C(=O)N1CCC[C@H]1C(=O)N[C@@H]1CCCc2ccccc21 [Compound 25],< 100 nM

# Same assay, conditions: Homo sapiens, MDA-MB-231; 72 hours, MTT based assay
row,Compound,EC50
1,CN[C@@H](C)C(=O)N[C@H](C(=O)N1CCC[C@H]1CN(CCc1ccccc1)C(=O)CF)[C@@H](C)OCC#CC#CCO[C@H](C)[C@H](NC(=O)[C@H](C)NC)C(=O)N1CCC[C@H]1CN(CCc1ccccc1)C(=O)CF [Compound 29],< 100 nM

# Tested on: SKOV-3 (ovarian) cancer cells
# Assay: Cell viability (MTT) assay, SKOV3 cells
# Conditions: 72 hours, MTT based assay; compounds added either alone or in presence of 1-3 ng/ml of TRAIL
# Protocol: as §1, §2
row,EC50,Compound
1,> 1000 nM,CN[C@@H](C)C(=O)N[C@@H](CC(=O)NCCNC(=O)C[C@H](NC(=O)[C@H](C)NC)C(=O)N1CCC[C@H]1CN(CCc1ccccc1)C(=O)C(F)(F)F)C(=O)N1CCC[C@H]1CN(CCc1ccccc1)C(=O)C(F)(F)F [Compound 32]
2,< 100 nM,CN[C@@H](C)C(=O)N[C@H](C(=O)N1CCC[C@H]1CN(CCc1ccccc1)C(=O)C(F)(F)F)[C@@H](C)OCCCCCCO[C@H](C)[C@H](NC(=O)[C@H](C)NC)C(=O)N1CCC[C@H]1CN(CCc1ccccc1)C(=O)C(F)(F)F [Compound 36]
3,< 100 nM,CN[C@@H](C)C(=O)N[C@H](C(=O)N1CCC[C@H]1CN(CCc1ccccc1)S(C)(=O)=O)[C@@H](C)OCCCCCCO[C@H](C)[C@H](NC(=O)[C@H](C)NC)C(=O)N1CCC[C@H]1CN(CCc1ccccc1)S(C)(=O)=O [Compound 37]

# Continued, compound first:
row,Compound,EC50
1,CN[C@@H](C)C(=O)NC(CCCNC(=O)c1ccc(C(=O)NCCC[C@H](NC(=O)[C@H](C)NC)C(=O)N2CCC[C@H]2C(=O)N[C@@H]2CCCc3ccccc32)cc1)C(=O)N1CCC[C@H]1CN(CCc1ccccc1)C(=O)C(F)(F)F (some centres unmarked) [Compound 38],< 100 nM
2,CN[C@@H](C)C(=O)NC(CCCNC(=O)c1ccc(C(=O)NCCC[C@H](NC(=O)[C@H](C)NC)C(=O)N2CCC[C@H]2CN(CCc2ccccc2)C(=O)C(F)(F)F)cc1)C(=O)N1CCC[C@H]1CN(CCc1ccccc1)C(=O)C(F)(F)F (some centres unmarked) [Compound 39],< 1000 nM
3,CN[C@@H](C)C(=O)NC(CCCNC(=O)CCC(=O)NCCC[C@H](NC(=O)[C@H](C)NC)C(=O)N1CCC[C@H]1CN(CCc1ccccc1)S(=O)(=O)c1ccc(F)cc1)C(=O)N1CCC[C@H]1CN(CCc1ccccc1)S(=O)(=O)c1ccc(F)cc1 (some centres unmarked) [Compound 40],< 1000 nM
